Experimental data from patent US20120225061A1, “TETRASUBSTITUTED CYCLOHEXYL COMPOUNDS AS KINASE INHIBITORS” (priority 2011, published 2012).

What was measured:
[1] = system: KMS11 (human myeloma cell line); assay: Cell proliferation assay (CellTiter-Glo) in KMS11 cells; format: cell-based; details: KMS-11, 72 h, Table 4, 3 days, read-out: KMS11-luc EC50
How it was run: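 KMS11 cells at 2000 per well in IMDM/10% FBS were exposed to compound for 3 days. Viability was read by CellTiter-Glo luminescence.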

Pim2 kinase = Pim2 kinase (Homo sapiens, UniProt Q9P1W9); assay: KinaseGlo Pim2 ATP depletion assay; format: biochemical; details: Table 4, 5 nM PIM2, 4 μM ATP, 10 μM BAD peptide
Method: (§1) The activity of PIM2 is measured using a luciferase-luciferin based ATP detection reagent to quantify ATP depletion resulting from kinase-catalyzed phosphoryl transfer to a peptide substrate. Compounds to be tested are dissolved in 100% DMSO and directly distributed into white 384-well plates at 0.5 μl per well. […] After 15 minutes, 10 μl of 8 μM ATP in assay buffer is added. Final assay concentrations are 5 nM PIM2, 4 μM ATP, 10 μM BAD peptide and 2.5% DMSO. The reaction is performed until approximately 50% of the ATP is depleted, then stopped with the addition of 20 μl KinaseGlo Plus (Promega Corporation) solution. The stopped reaction is incubated for 10 minutes and the remaining ATP detected via luminescence on the Victor2 (Perkin Elmer).

Pim1 kinase = Pim1 kinase (Homo sapiens, UniProt P11309); assay: KinaseGlo Pim1 ATP depletion assay; format: biochemical; details: Table 4, 2.5 nM PIM1, 20 μM ATP, 40 μM BAD peptide
Method: as §1, with “of PIM1” for “of PIM2”, “of 40” for “of 8”, “added. […]” for “added. Final assay concentrations are 5 nM PIM2, 4 μM ATP, 10 μM BAD peptide and 2.5% DMSO.”

Pim3 kinase = Pim3 kinase (Homo sapiens, UniProt Q86V86); assay: KinaseGlo Pim3 ATP depletion assay; format: biochemical; details: Table 4, 40 μM ATP, 100 μM BAD peptide
Method: as §1, with “of PIM3” for “of PIM2”, “of 80” for “of 8”, “nM PIM1, 40” for “nM PIM2, 4”, “ATP, 100” for “ATP, 10”, “stopped by” for “stopped with”

Pim2 kinase, sequence (Q9P1W9 whole entry): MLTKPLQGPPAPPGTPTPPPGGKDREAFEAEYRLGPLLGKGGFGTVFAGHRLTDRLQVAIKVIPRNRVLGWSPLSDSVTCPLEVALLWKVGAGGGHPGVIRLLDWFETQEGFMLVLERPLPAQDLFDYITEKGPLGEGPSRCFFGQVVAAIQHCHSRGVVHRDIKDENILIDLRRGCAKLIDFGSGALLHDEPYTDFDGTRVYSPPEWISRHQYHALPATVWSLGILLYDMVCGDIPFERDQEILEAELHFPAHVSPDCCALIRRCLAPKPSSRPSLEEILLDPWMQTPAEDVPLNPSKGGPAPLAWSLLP
Pim1 kinase, sequence (P11309 whole entry): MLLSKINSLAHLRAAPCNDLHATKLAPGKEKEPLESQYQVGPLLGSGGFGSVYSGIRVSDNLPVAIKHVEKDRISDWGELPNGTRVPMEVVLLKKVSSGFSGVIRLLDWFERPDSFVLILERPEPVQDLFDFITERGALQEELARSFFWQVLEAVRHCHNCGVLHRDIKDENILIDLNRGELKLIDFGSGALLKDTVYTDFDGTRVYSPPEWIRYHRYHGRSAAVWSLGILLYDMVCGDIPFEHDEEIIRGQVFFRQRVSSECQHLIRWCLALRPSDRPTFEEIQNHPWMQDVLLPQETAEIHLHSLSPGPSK

| SMILES | EC50 [1] [nM] | IC50 (Pim2 kinase) [nM] | IC50 (Pim1 kinase) [nM] | IC50 (Pim3 kinase) [nM] |
| --- | --- | --- | --- | --- |
| C[C@H]1C[C@@H](c2ccncc2NC(=O)c2ccnc(-c3c(F)cccc3F)n2)C[C@@H](O)[C@@]1(O)CO [Example 39, 2-(2,6-difluorophenyl)-N-(4-((1R,3R,4S,5S)-3,4-dihydroxy-4-(hydroxymethyl)-5-methylcyclohexyl)pyridin-3-yl) pyrimidine-4-carboxamide] | ≥ 10000 | 25.5 | 4.7 | 4.5 |
| C[C@H]1C[C@@H](c2ccncc2NC(=O)c2nc(-c3c(F)cccc3F)c(F)cc2N)C[C@@H](O)[C@]1(C)O [Example 48, 3-amino-6-(2,6-difluorophenyl)-N-(4-((1R,3R,4R,5S)-3,4-dihydroxy-4,5-dimethylcyclohexyl)pyridin-3-yl)-5-fluoropicolinamide] | 870 | 1.3 | 0.4 | 1.4 |
| COc1cc(F)c(-c2cccc(C(=O)Nc3cnccc3[C@H]3C[C@@H](O)[C@](C)(O)[C@@H](C)C3)n2)c(F)c1 [Example 50, 6-(2,6-difluoro-4-methoxyphenyl)-N-(4-((1R,3R,4R,5S)-3,4-dihydroxy-4,5-dimethylcyclohexyl)pyridin-3-yl) picolinamide] | 4780 | 3.5 | 0.6 | 1.5 |
| C[C@H]1C[C@@H](c2ccncc2NC(=O)c2nc(-c3nccs3)ccc2N)C[C@@H](O)[C@]1(C)O [Example 52, 3-amino-N-(4-((1R,3R,4R,5S)-3,4-dihydroxy-4,5-dimethylcyclohexyl)pyridin-3-yl)-6-(thiazol-2-yl) picolinamide] | 9740 | 13.5 | 2 | 3.6 |
| C[C@H]1C[C@@H](c2ccncc2NC(=O)c2ccc(F)c(-c3ccc(C#N)cc3F)n2)C[C@@H](O)[C@]1(C)O [Example 54, 6-(4-cyano-2-fluorophenyl)-N-(4-((1R,3R,4R,5S)-3,4-dihydroxy-4,5-dimethylcyclohexyl)pyridin-3-yl)-5-fluoropicolinamide] | ≥ 10000 | 67.9 | 3.3 | 12.1 |
| C[C@H]1C[C@@H](c2ccncc2NC(=O)c2ccc(F)c(-c3c(F)ccc(N)c3F)n2)C[C@@H](O)[C@]1(C)O [Example 56, 6-(3-amino-2,6-difluorophenyl)-N-(4-((1R,3R,4R,5S)-3,4-dihydroxy-4,5-dimethylcyclohexyl)pyridin-3-yl)-5-fluoropicolinamide] | 7960 | 5.3 | 0.4 | 2.9 |
| C[C@@H]1C[C@H](c2ccncc2NC(=O)c2ccc(F)c(-c3c(F)cccc3F)n2)C[C@H](O)[C@]1(O)CO [Example 60, 6-(2,6-difluorophenyl)-N-(4-((1S,3S,4R,5R)-3,4-dihydroxy-4-(hydroxymethyl)-5-methylcyclohexyl)pyridin-3-yl)-5-fluoropicolinamide] | ≥ 10000 | 1710 | 19.3 | 329 |
| C[C@H]1C[C@@H](c2ccncc2NC(=O)c2nc(-c3nc(Cl)ccc3F)ccc2N)C[C@@H](O)[C@]1(C)O [Example 136, 5-amino-6′-chloro-N-(4-((1R,3R,4R,5S)-3,4-dihydroxy-4,5-dimethylcyclohexyl)pyridin-3-yl)-3′-fluoro-2,2′-bipyridine-6-carboxamide] | 5750 | 4.6 | 1 | 1.9 |
| COC(=O)c1ccc(F)c(-c2ccc(N)c(C(=O)Nc3cnccc3[C@H]3C[C@@H](O)[C@](C)(O)[C@@H](C)C3)n2)n1 [Example 137, methyl 5′-amino-6′-(4-((1R,3R,4R,5S)-3,4-dihydroxy-4,5-dimethylcyclohexyl)pyridin-3-ylcarbamoyl)-3-fluoro-2,2′-bipyridine-6-carboxylate] | 8580 | 5.4 | 1.5 | 2.3 |
| Cc1ccc(F)c(-c2ccc(N)c(C(=O)Nc3cnccc3[C@H]3C[C@@H](O)[C@](C)(O)[C@@H](C)C3)n2)n1 [Example 138, 5-amino-N-(4-((1R,3R,4R,5S)-3,4-dihydroxy-4,5-dimethylcyclohexyl)pyridin-3-yl)-3′-fluoro-6′-methyl-2,2′-bipyridine-6-carboxamide] | ≥ 10000 | 12.9 | 1.7 | 2.6 |

Other lines, results leading:

| EC50 [1] [nM] | IC50 (Pim2 kinase) [nM] | IC50 (Pim1 kinase) [nM] | IC50 (Pim3 kinase) [nM] | SMILES |
| --- | --- | --- | --- | --- |
| ≥ 10000 | 24.3 | 3.6 | 9.3 | C[C@H]1C[C@@H](c2ccncc2NC(=O)c2nc(Br)ccc2N)C[C@@H](O)[C@]1(C)O [Example 38, 3-amino-6-bromo-N-(4-((1R,3R,4R,5S)-3,4-dihydroxy-4,5-dimethylcyclohexyl)pyridin-3-yl) picolinamide] |
| ≥ 10000 | 2880 | 209 | 385 | C[C@@H]1C[C@H](c2ccncc2NC(=O)c2ccnc(-c3c(F)cccc3F)n2)C[C@H](O)[C@]1(O)CO [Example 40, 2-(2,6-difluorophenyl)-N-(4-((1S,3S,4R,5R)-3,4-dihydroxy-4-(hydroxymethyl)-5-methylcyclohexyl)pyridin-3-yl) pyrimidine-4-carboxamide] |
| ≥ 10000 | 846 | 44.6 | 434 | CC[C@]1(O)[C@H](C)C[C@H](c2ccncc2NC(=O)c2ccc(F)c(-c3c(F)cccc3F)n2)C[C@@H]1O [Example 42, 6-(2,6-difluorophenyl)-N-(4-((1S,3S,4S,5R)-4-ethyl-3,4-dihydroxy-5-methylcyclohexyl)pyridin-3-yl)-5-fluoropicolinamide] |
| 1540 | 2 | 0.4 | 2 | CC(=O)OC[C@]1(O)[C@H](O)C[C@H](c2ccncc2NC(=O)c2ccc(F)c(-c3c(F)cccc3F)n2)C[C@@H]1C [Example 43, ((1S,2R,4R,6S)-4-(3-(6-(2,6-difluorophenyl)-5-fluoropicolinamido)pyridin-4-yl)-1,2-dihydroxy-6-methylcyclohexyl) methylacetate] |
| ≥ 10000 | 44.2 | 8.6 | 29.3 | CC(=O)OC[C@]1(O)[C@H](C)C[C@H](c2ccncc2NC(=O)c2ccc(F)c(-c3c(F)cccc3F)n2)C[C@@H]1O [Example 44, ((1R,2S,4S,6R)-4-(3-(6-(2,6-difluorophenyl)-5-fluoropicolinamido)pyridin-4-yl)-1,2-dihydroxy-6-methylcyclohexyl) methylacetate] |
| ≥ 10000 | 10.9 | 1.4 | 3.5 | C[C@H]1C[C@@H](c2ccncc2NC(=O)c2ccc(F)c(-c3c(F)ccc(C#N)c3F)n2)C[C@@H](O)[C@]1(C)O [Example 46, 6-(3-cyano-2,6-difluorophenyl)-N-(4-((1R,3R,4R,5S)-3,4-dihydroxy-4,5-dimethylcyclohexyl)pyridin-3-yl)-5-fluoropicolinamide] |
| ≥ 10000 | 740 | 12.7 | 220 | C[C@@H]1C[C@H](c2ccncc2NC(=O)c2ccc(F)c(-c3c(F)ccc(N)c3F)n2)C[C@H](O)[C@@]1(C)O [Example 55, 6-(3-amino-2,6-difluorophenyl)-N-(4-((1S,3S,4S,5R)-3,4-dihydroxy-4,5-dimethylcyclohexyl)pyridin-3-yl)-5-fluoropicolinamide] |
| 6620 | 227 | 15.1 | 102 | C[C@@H]1C[C@H](c2ccncc2NC(=O)c2cccc(-c3c(F)cccc3F)n2)C[C@H](O)[C@@]1(C)O [Example 57, 6-(2,6-difluorophenyl)-N-(4-((1S,3S,4S,5R)-3,4-dihydroxy-4,5-dimethylcyclohexyl)pyridin-3-yl) picolinamide] |
| 6060 | 3.4 | 0.4 | 2.6 | C[C@H]1C[C@@H](c2ccncc2NC(=O)c2cccc(-c3c(F)cccc3F)n2)C[C@@H](O)[C@]1(C)O [Example 58, 6-(2,6-difluorophenyl)-N-(4-((1R,3R,4R,5S)-3,4-dihydroxy-4,5-dimethylcyclohexyl)pyridin-3-yl) picolinamide] |
